This note sets out measurements from ChEMBL document CHEMBL4433268, “Rational design of a SHP-2 targeted, fluorogenic peptide substrate” (Bioorg Med Chem Lett, 2019).

Activity calls are given as the source filed them. The calls are words filed in the database; no cut-off is given here. Non-standard residues stand in square brackets, D forms with d. Residues, ends and D or L forms follow the SMILES beside them. Ala(7-OPO3H2-coumarin-4-yl) = N[C@@H](Cc1cc(=O)oc2cc(OP(=O)(O)O)ccc12)C(=O)O

Experiment [1] has as its target Receptor-type tyrosine-protein phosphatase mu (Homo sapiens) (UniProt P28827). The experiment is described as follows: Substrate activity at PTPmu (unknown origin) expressed in Escherichia coli BL21 (DE3) incubated for 60 mins by fluorescence based assay.
The target of experiment [2] is T1, Tyrosine-protein phosphatase non-receptor type 11 (Homo sapiens) (UniProt Q06124).
T1 sequence (whole entry): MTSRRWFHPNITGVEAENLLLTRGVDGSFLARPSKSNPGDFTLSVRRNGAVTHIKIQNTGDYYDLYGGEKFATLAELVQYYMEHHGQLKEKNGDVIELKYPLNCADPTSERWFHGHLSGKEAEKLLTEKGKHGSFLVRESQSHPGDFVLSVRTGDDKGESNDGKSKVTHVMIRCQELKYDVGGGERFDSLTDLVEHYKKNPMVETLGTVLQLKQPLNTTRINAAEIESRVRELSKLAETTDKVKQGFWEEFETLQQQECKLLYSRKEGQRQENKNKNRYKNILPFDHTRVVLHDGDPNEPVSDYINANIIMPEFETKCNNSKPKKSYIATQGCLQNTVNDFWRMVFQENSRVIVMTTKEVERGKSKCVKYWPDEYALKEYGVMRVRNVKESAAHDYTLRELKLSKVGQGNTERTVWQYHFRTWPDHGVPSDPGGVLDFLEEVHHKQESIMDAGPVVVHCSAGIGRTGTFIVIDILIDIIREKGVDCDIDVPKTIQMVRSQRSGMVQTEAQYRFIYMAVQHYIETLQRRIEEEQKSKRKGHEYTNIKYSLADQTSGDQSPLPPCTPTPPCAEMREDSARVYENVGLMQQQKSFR
Nature of the experiment: Substrate activity at SHP2 (unknown origin) expressed in Escherichia coli BL21 (DE3) incubated for 60 mins by fluorescence based assay.

Experiment [3] has as its target T2, Tyrosine-protein phosphatase non-receptor type 22 (Homo sapiens) (UniProt Q9Y2R2).
T2 sequence (whole entry): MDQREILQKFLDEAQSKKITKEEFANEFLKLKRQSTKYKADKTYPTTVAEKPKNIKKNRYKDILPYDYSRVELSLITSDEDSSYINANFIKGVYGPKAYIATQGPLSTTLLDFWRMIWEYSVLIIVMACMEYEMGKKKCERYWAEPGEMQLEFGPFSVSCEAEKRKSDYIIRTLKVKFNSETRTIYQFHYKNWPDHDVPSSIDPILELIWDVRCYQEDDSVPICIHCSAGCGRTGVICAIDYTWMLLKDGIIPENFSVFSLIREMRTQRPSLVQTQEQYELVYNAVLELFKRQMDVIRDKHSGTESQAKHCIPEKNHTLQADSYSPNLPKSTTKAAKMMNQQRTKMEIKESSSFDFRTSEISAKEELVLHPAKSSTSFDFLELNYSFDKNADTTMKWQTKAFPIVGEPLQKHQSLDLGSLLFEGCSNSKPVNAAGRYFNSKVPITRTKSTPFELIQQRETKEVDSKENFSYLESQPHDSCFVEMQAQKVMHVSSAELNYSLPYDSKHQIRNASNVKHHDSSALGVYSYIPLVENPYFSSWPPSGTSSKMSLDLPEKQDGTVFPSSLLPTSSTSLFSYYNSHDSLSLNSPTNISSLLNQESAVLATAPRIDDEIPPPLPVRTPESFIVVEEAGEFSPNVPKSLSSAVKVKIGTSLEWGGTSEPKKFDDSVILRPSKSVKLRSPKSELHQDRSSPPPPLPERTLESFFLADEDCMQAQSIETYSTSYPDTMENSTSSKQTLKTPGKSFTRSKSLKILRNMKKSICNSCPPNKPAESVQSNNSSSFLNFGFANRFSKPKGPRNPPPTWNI
Nature of the experiment: Substrate activity at LYP (unknown origin) expressed in Escherichia coli BL21 (DE3) incubated for 60 mins by fluorescence based assay.

The target in experiment [4] is T3, Tyrosine-protein phosphatase non-receptor type 4 (Homo sapiens) (UniProt P29074).
T3 sequence (whole entry): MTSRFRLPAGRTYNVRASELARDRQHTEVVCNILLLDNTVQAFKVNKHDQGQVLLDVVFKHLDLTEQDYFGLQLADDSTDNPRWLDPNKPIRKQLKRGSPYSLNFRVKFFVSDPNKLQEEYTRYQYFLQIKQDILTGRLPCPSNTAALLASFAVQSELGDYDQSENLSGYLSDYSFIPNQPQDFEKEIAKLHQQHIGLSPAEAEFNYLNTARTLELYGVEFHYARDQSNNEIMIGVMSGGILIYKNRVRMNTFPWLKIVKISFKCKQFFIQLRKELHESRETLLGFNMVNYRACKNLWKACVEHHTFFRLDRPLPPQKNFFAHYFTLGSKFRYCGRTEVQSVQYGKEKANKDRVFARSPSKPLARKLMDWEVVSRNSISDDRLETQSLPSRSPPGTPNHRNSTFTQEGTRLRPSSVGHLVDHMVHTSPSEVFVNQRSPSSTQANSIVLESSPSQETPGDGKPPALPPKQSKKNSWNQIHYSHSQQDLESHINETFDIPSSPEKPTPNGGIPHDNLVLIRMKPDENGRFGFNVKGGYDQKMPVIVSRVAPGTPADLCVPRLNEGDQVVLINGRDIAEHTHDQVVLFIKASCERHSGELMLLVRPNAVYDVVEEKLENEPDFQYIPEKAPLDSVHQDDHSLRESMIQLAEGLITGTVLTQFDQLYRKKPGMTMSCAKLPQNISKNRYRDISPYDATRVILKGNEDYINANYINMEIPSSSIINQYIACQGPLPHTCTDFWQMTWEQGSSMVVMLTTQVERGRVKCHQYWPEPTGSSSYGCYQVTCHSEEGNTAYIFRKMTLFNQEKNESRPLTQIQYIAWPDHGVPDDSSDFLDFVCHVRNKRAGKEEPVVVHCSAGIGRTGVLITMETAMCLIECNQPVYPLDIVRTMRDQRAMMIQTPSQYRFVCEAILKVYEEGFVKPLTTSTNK
The experiment is described as follows: Substrate activity at MEG1 (unknown origin) expressed in Escherichia coli BL21 (DE3) incubated for 60 mins by fluorescence based assay.

Experiment [5] has as its target T4, Tyrosine-protein phosphatase non-receptor type 7 (Homo sapiens) (UniProt P35236).
T4 sequence (whole entry): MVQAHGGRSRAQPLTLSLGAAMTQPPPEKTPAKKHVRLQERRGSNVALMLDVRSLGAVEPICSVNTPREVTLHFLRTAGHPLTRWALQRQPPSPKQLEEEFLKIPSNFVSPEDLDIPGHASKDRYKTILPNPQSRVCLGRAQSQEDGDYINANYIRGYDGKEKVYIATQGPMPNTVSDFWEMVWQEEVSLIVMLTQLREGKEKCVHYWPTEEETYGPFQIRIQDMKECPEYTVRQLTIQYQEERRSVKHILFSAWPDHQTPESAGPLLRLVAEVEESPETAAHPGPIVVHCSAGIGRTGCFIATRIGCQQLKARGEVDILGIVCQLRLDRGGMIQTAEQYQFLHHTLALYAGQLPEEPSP
Nature of the experiment: Substrate activity at HEPTP (unknown origin) expressed in Escherichia coli BL21 (DE3) incubated for 60 mins by fluorescence based assay.

Chain of Receptor-type tyrosine-protein phosphatase mu (Homo sapiens) (P28827 whole entry): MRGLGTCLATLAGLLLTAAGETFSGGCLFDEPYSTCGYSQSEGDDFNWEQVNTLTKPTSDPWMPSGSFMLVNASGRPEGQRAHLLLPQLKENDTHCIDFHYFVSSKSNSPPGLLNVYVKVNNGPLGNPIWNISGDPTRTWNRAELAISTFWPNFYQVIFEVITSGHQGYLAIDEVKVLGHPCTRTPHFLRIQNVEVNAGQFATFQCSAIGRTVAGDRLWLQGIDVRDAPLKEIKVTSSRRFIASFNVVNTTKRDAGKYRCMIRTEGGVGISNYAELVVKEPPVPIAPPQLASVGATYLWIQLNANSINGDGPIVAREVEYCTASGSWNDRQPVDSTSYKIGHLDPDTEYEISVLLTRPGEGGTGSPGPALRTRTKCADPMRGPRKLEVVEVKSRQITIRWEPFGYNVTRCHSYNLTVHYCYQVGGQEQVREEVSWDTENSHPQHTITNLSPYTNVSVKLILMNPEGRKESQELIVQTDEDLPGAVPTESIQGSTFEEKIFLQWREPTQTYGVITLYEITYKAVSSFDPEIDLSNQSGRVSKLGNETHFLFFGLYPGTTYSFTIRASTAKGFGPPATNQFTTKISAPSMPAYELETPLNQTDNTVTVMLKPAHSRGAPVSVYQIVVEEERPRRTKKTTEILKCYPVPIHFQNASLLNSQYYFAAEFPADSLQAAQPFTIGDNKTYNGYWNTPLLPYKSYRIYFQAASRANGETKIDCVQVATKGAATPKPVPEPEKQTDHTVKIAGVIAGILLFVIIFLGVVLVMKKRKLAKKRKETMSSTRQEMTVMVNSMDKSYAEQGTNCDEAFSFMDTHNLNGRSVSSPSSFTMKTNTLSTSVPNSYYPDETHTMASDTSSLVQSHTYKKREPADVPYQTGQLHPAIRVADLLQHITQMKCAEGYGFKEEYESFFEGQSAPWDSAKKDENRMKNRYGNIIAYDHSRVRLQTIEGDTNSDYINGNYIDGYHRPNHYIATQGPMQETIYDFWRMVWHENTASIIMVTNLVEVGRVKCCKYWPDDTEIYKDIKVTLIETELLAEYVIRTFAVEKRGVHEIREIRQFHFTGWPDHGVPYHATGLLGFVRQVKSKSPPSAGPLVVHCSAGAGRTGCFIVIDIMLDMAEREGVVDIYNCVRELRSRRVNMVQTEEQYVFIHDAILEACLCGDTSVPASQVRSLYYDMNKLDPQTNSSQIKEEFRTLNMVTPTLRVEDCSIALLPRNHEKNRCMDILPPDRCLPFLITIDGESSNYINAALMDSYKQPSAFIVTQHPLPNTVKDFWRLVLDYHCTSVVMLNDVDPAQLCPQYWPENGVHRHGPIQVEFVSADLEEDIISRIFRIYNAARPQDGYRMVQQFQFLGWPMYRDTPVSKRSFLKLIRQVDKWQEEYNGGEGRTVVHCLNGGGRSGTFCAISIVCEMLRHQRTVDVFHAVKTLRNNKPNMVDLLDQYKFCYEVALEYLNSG

Regarding `CC[C@H](C)[C@H](NC(=O)[C@@H](NC(=O)[C@H](CO)NC(=O)[C@H](CC(=O)O)NC(C)=O)[C@@H](C)O)C(=O)N[C@@H](Cc1cc(=O)oc2cc(OP(=O)(O)O)ccc12)C(=O)N[C@@H](CC(=O)O)C(=O)N[C@H](C(=O)N[C@@H](CC(C)C)C(=O)N[C@@H](CC(=O)O)C(N)=O)C(C)C` (Ac-DSTI[Ala(7-OPO3H2-coumarin-4-yl)]DVLD-NH2), the result in experiment [1] was inactive. Besides, in experiment [2], the result was Active.

In the case of `CC[C@H](C)[C@H](NC(=O)[C@@H](NC(=O)[C@H](CC(=O)O)NC(=O)[C@H](CC(=O)O)NC(C)=O)[C@@H](C)O)C(=O)N[C@@H](Cc1cc(=O)oc2cc(OP(=O)(O)O)ccc12)C(=O)N[C@@H](CC(=O)O)C(=O)N[C@H](C(=O)N[C@@H](CC(C)C)C(=O)N[C@@H](CC(=O)O)C(N)=O)C(C)C` (Ac-DDTI[Ala(7-OPO3H2-coumarin-4-yl)]DVLD-NH2), the result in experiment [3] and in experiment [2] was Active. Also, the result in experiment [4], in experiment [5] and in experiment [1] was inactive.

Turning to `CC[C@H](C)[C@H](NC(=O)[C@@H](NC(=O)[C@H](CO)NC(=O)[C@H](CC(=O)O)NC(C)=O)[C@@H](C)O)C(=O)N[C@@H](Cc1cc(=O)oc2cc(OP(=O)(O)O)ccc12)C(=O)N[C@H](C(=O)N[C@H](C(=O)N[C@@H](CC(C)C)C(=O)N[C@@H](CC(=O)O)C(N)=O)C(C)C)C(C)C` (Ac-DSTI[Ala(7-OPO3H2-coumarin-4-yl)]VVLD-NH2), in experiment [1], the result was inactive. Besides, in experiment [2], the outcome was Active.

As for `CC[C@H](C)[C@H](NC(=O)[C@@H](NC(=O)[C@H](CC(=O)O)NC(=O)[C@H](CC(=O)O)NC(C)=O)[C@@H](C)O)C(=O)N[C@@H](Cc1cc(=O)oc2cc(OP(=O)(O)O)ccc12)C(=O)N[C@H](C(=O)N[C@H](C(=O)N[C@@H](CC(C)C)C(=O)N[C@@H](CC(=O)O)C(N)=O)C(C)C)[C@@H](C)O` (Ac-DDTI[Ala(7-OPO3H2-coumarin-4-yl)]TVLD-NH2), in experiment [1], the outcome was inactive. Besides, in experiment [2], the outcome was Active.

As for `CC[C@H](C)[C@H](NC(=O)[C@@H](NC(=O)[C@H](CC(=O)O)NC(=O)[C@H](CC(=O)O)NC(C)=O)[C@@H](C)O)C(=O)N[C@@H](Cc1cc(=O)oc2cc(OP(=O)(O)O)ccc12)C(=O)N[C@H](C(=O)N[C@H](C(=O)N[C@@H](CC(C)C)C(=O)N[C@@H](CC(=O)O)C(N)=O)C(C)C)C(C)C` (Ac-DDTI[Ala(7-OPO3H2-coumarin-4-yl)]VVLD-NH2), the outcome in experiment [3], in experiment [4], in experiment [5] and in experiment [2] was Active. The outcome in experiment [1] was inactive.

As to `CC[C@H](C)[C@H](NC(=O)[C@@H](NC(=O)[C@@H]1CCCN1C(=O)[C@H](CC(=O)O)NC(C)=O)[C@@H](C)O)C(=O)N[C@@H](Cc1cc(=O)oc2cc(OP(=O)(O)O)ccc12)C(=O)N1CCC[C@H]1C(=O)N[C@H](C(=O)N[C@@H](CC(C)C)C(=O)N[C@@H](CC(=O)O)C(N)=O)C(C)C` (Ac-DPTI[Ala(7-OPO3H2-coumarin-4-yl)]PVLD-NH2), in experiment [1], the outcome was inactive. In addition, in experiment [2], the result was Active.

For the compound `CC[C@H](C)[C@H](NC(=O)[C@@H](NC(=O)[C@H](CO)NC(=O)[C@H](CC(=O)O)NC(C)=O)[C@@H](C)O)C(=O)N[C@@H](Cc1cc(=O)oc2cc(OP(=O)(O)O)ccc12)C(=O)N[C@H](C(=O)N[C@H](C(=O)N[C@@H](CC(C)C)C(=O)N[C@@H](CC(=O)O)C(N)=O)C(C)C)[C@@H](C)O` (Ac-DSTI[Ala(7-OPO3H2-coumarin-4-yl)]TVLD-NH2), the outcome in experiment [1] was inactive. Moreover, the result in experiment [2] was Active.
